Data on 36 compounds can be found in patent publication US9771378B2 (Denali Therapeutics, Inc., priority 2014, dated 2017).

In the assay the test system is Aβ42 (human neuroglioma H4 cells expressing human wild type APP751). Briefly: In vitro cell screening assay with sandwich ELISA quantification of Aβ42 peptide. Format: cell-based. The following applies: H4 cells stably expressing human wild type APP751; Pro293 chemically defined medium; compounds 0.003-10 μM; incubated overnight (16-18 h); supernatant Aβ42 by sandwich ELISA; normalized to DMSO and DAPT; read-out: Aβ42 H4 Prot Fre IC50. The protocol:
Human neuroglioma H4 cells were transfected with a pcDNA3.1 plasmid expressing human wild type APP751 cDNA and a stable cell line was generated using G418 selection. Cells are plated at 15,000 cells/well in Costar 96-well plates and placed at 37° C. and 5% CO2. Six hours after plating, cells are washed three times with Pro293™ chemically defined medium, followed by addition of compounds (0.003-10 μM, final DMSO concentration of 0.33%). Plates were incubated overnight (16-18 h) and supernatant was removed for quantification of AP peptides by sandwich ELISA. Cytotoxicity was evaluated using Cell-Titer 96W AQueous One Solution Cell Proliferation Assay according to the manufacturer's protocol.
ELISA Measurements of Aβ Peptides
Aβ peptide levels were quantified by sandwich ELISA. 96-well plates are coated with C-terminal specific Aβ antibodies recognizing either Aβ37, Aβ38, Aβ40, Aβ42, Aβ43 or a N-terminal specific Aβ antibody to detect Aβ 1-x. Plates are then blocked overnight at 4° C. with 1% bovine serum albumin (BSA) in PBS-T. Plates are washed and 100 μl of cultured cell supernatant or synthetic Aβ peptide standards and a detection antibody (4G8-HRP) are applied to the blocked plate and incubated overnight at 4° C. The next day, wells are washed before the addition […] of detection substrate (TMB peroxidase). Plates are then read for absorbance at 450 nm on a Molecular Devices SpectraMax M5e Microplate Reader.
IC50 values were calculated from values reported as percent of DMSO controls using nonlinear regression, based on a sigmoidal dose-response (variable slope) model. GraphPAD software from Prism used for calculation.
For the compound `COc1cc(Nc2ncc3c(n2)N2CC(F)(F)C[C@@H]2CO3)ccc1-n1cnc(C)c1` [Example 303, (R)-8,8-difluoro-N-(3-methoxy-4-(4-methyl-1H-imidazol-1-yl)phenyl)-6a, 7,8,9-tetrahydro-6H-pyrimido [5,4-b] pyrrolo [1,2-d] [1, 4] oxazin-2-amine], the IC50 was found to be 131 nM.

Regarding `COc1cc(Nc2ncc3c(n2)N(C)C(C(F)(F)F)CO3)ccc1-n1cnc(C)c1` (single isomer, unassigned; (+)) [Example 187A], the IC50 came to 419 nM.

In the case of `COc1cc(Nc2ncc3c(n2)N(C)C2(CCCC2)CO3)ccc1-c1cnn(C)c1` [Example 264], the IC50 is 260 nM.

Turning to `COc1cc(Nc2ncc3c(n2)N(C)C(c2ccc(Cl)cc2Cl)CO3)ccc1-n1cnc(C)c1` (single isomer, unassigned; (+)) [Example 95B], the IC50 was determined as 15 nM.

Take `COc1nc(Nc2ncc3c(n2)N(C)C(c2cc(F)cc(F)c2)CO3)ccc1-c1cnn(C)c1` (single isomer, unassigned; (+)) [Example 184B]: the IC50 is more than 3000 nM.

For `COc1cc(Nc2ncc3c(n2)N(C)C(c2cc(F)c(F)cc2F)CO3)ccc1-n1cnc(C)c1` (single isomer, unassigned; (+)) [Example 97B], the IC50 was found to be 13 nM.

With `COc1ccc(C)c(C2COc3cnc(Nc4ccc(-n5cnc(C)c5)c(OC)c4)nc3N2C)c1` (racemic) [Example 90], the IC50 stood at 27 nM.

As for `COc1cc(Nc2ncc3c(n2)N(C)C(c2cc(Cl)ccc2C(F)(F)F)CO3)ccc1-n1cnc(C)c1` (single isomer, unassigned; (+)) [Example 165A], the IC50 was determined as 89 nM.

Turning to `COc1cc(Nc2ncc3c(n2)N(C)C(c2cc(F)c(F)cc2Cl)CO3)ccc1-n1cnc(C)c1` (single isomer, unassigned; (+)) [Example 103A], the IC50 worked out at 19 nM.

Turning to `COc1cc(Nc2ncc3c(n2)N(C)C(C)(C)CO3)cnc1-c1cnn(C)c1` [Example 270], the IC50 is more than 3000 nM.

For `COc1cc(Nc2ncc3c(n2)N2CCC[C@@]2(C)CO3)ccc1-n1cnc(C)c1` [Example 291, (S)-N-(3-methoxy-4-(4-methyl-1H-imidazol-1-yl)phenyl)-6a-methyl-6a, 7,8,9-tetrahydro-6H-pyrimido [5,4-b] pyrrolo [1,2-d] [1, 4] oxazin-2-amine], the IC50 was found to be 131 nM.

Turning to `COc1cc(Nc2ncc3c(n2)N(C)C(C(F)(F)F)CO3)ccc1-n1cnc(Cl)c1` (single isomer, unassigned; (-)) [Example 228B], the IC50 is 14 nM.

On to `Cc1cc(-c2ccc(Nc3ncc4c(n3)N(C)C(c3ccccc3C)CO4)cc2)ccn1` (single isomer, unassigned; (-)) [Example 29A], for which the IC50 was 1100 nM.

For `Cc1cn(-c2ccc(Nc3ncc4c(n3)N(C)C(c3cc(F)cc(F)c3)CO4)cc2OC(F)(F)F)cn1` (single isomer, unassigned; (+)) [Example 223B], the IC50 is more than 3000 nM.

Regarding `COc1cc(Nc2ncc3c(n2)N(C)C(C2COC2)CO3)ccc1-n1cnc(C)c1` (single isomer, unassigned; (+)) [Example 241B], the IC50 was found to be 342 nM.

For `Cc1cn(-c2ccc(Nc3ncc4c(n3)N(C)C(C)(C)CO4)nc2)cn1` [Example 262], the IC50 is more than 3000 nM.

With `Cc1cn(-c2ccc(Nc3ncc4c(n3)N(C)C(c3cc(F)cc(F)c3)CO4)cc2C(F)F)cn1` (single isomer, unassigned; (-)) [Example 222B], the IC50 is more than 3000 nM.

For the compound `COc1cc(Nc2ncc3c(n2)N(C)C(c2ccc(F)cc2Cl)CO3)ccc1-n1cnc(C)c1` (single isomer, unassigned; (-)) [Example 93A], the IC50 was 189 nM.

With `COc1ccc(Cl)c(C2COc3cnc(Nc4cnc(-n5cnc(C)c5)c(OC)c4)nc3N2C)c1` (single isomer, unassigned; (-)) [Example 208B], the IC50 was 136 nM.

Take `Cc1cc(-c2ccc(Nc3ncc4c(n3)N(C)C(c3ccccc3)CO4)cc2F)ccn1` (single isomer, unassigned; (+)) [Example 27A]: the IC50 stood at 306 nM.

For the compound `COc1cc(Nc2ncc3c(n2)N(C)C2(CO3)CC(F)(F)C2)ccc1-n1cnc(Cl)c1` [Example 277], the IC50 stood at 97 nM.

Consider `COc1cc(Nc2ncc3c(n2)N(C)C(c2cc(F)c(F)c(F)c2)CO3)cnc1-n1cnc(C)c1` (single isomer, unassigned; (+)) [Example 182A], for which the IC50 amounted to 13 nM.

`Cc1cn(-c2ccc(Nc3ncc4c(n3)N(C)C(c3cc(F)c(F)cc3Cl)CO4)cc2F)cn1` (single isomer, unassigned; (-)) [Example 169B]: the IC50 stood at 2260 nM.

In the case of `COc1cc(Nc2ncc3c(n2)N(C)C(c2cc(F)cc(F)c2)CO3)ccc1-n1cnc(C)c1` (single isomer, unassigned; (+)) [Example 30B], the IC50 turned out to be 23 nM.

As for `COc1cc(Nc2ncc3c(n2)N(C)C(c2cc(F)c(F)cc2F)CO3)ccc1-n1cnc(C)c1` (single isomer, unassigned; (-)) [Example 97A], the IC50 is 244 nM.

Take `COc1cc(Nc2ncc3c(n2)N(C)C(c2ccccc2C)CO3)ccc1-n1cnc(C)c1` (single isomer, unassigned; (+)) [Example 31B]: the IC50 was 29.6 nM.

Take `COc1cc(Nc2ncc3c(n2)N(C)C(C)CO3)ccc1-c1ccnc(C)c1` (single isomer, unassigned; (+)) [Example 110B]: the IC50 stood at 91 nM.

In the case of `Cc1cc(-c2ccc(Nc3ncc4c(n3)N(C)C(c3ccc(F)cc3Cl)CO4)cc2F)ccn1` (single isomer, unassigned; (-)) [Example 102B], the IC50 was determined as 1350 nM.

For the compound `COc1cc(Nc2ncc3c(n2)N2CCOC[C@H]2CO3)ccc1-n1cnc(C)c1` [Example 295], the IC50 came to 496 nM.

As to `COc1cc(Cl)c(C2COc3cnc(Nc4ccc(-n5cnc(C)c5)c(OC)c4)nc3N2C)cc1Cl` (racemic) [Example 89], the IC50 came out at 23 nM.

For the compound `COc1cc(Nc2ncc3c(n2)N(C)C(c2ccc(F)cc2F)CO3)cnc1-n1cnc(C)c1` (single isomer, unassigned; (-)) [Example 186B], the IC50 was 328 nM.

Take `Cc1cn(-c2ccc(Nc3ncc4c(n3)N(C)C(c3cc(F)c(F)cc3C(F)(F)F)CO4)cc2F)cn1` (single isomer, unassigned) [Example 198A]: the IC50 worked out at 1110 nM.

As to `COc1cc(Cl)c(C2COc3cnc(Nc4ccc(-n5cnc(C)c5)c(OC)c4)nc3N2C)cc1Cl` (single isomer, unassigned; (-)) [Example 174A], the IC50 worked out at 150 nM.

With `COc1cc(Nc2ncc3c(n2)N(C)C(c2cc(F)cc(F)c2)CO3)ccc1C#N` (single isomer, unassigned; (-)) [Example 237A, (−)-4-((7-(3,5-difluorophenyl)-8-methyl-7,8-dihydro-6H-pyrimido [5,4-b] [1, 4]oxazin-2-yl)amino)-2-methoxybenzonitrile], the IC50 was more than 3000 nM.

On to `Cc1cn(-c2ccc(Nc3ncc4c(n3)N(C)C(C)CO4)cc2OC(F)(F)F)cn1` (single isomer, unassigned; (+)) [Example 213B], for which the IC50 was more than 3000 nM.

For the compound `Cc1cn(-c2ccc(Nc3ncc4c(n3)N(C)C3(CC3)CO4)cc2F)cn1` [Example 258], the IC50 came to 324 nM.
